Activity calls are given as the source filed them. The calls are words filed in the database; no cut-off is given here.
Experiments:
[1] = molecular target: T1, Bromodomain-containing protein 3 (Homo sapiens, UniProt Q15059); assay: Binding affinity to human BRD3 domain 1 assessed as dissociation constant by isothermal titration calorimetry assay
[2] = molecular target: T2, Bromodomain-containing protein 2 (Homo sapiens, UniProt P25440); assay: Binding affinity to human BRD2 domain 2 assessed as dissociation constant by isothermal titration calorimetry assay
[3] = molecular target: T2, Bromodomain-containing protein 2; assay: Binding affinity to human BRD2 domain 1 assessed as dissociation constant by isothermal titration calorimetry assay
[4] = molecular target: Bromodomain-containing protein 4 (Homo sapiens, UniProt O60885); assay: Binding affinity to human BRD4 domain 1 (unknown origin) assessed as dissociation constant by isothermal titration calorimetry assay
[5] = molecular target: T3, Protein deacetylase HDAC6 (Homo sapiens, UniProt Q9UBN7); assay: Inhibition of human recombinant HDAC6 assessed as fluorescence using fluorogenic substrate ZMAL incubated for 90 min by microplate reader
T3 sequence (Q9UBN7 whole entry): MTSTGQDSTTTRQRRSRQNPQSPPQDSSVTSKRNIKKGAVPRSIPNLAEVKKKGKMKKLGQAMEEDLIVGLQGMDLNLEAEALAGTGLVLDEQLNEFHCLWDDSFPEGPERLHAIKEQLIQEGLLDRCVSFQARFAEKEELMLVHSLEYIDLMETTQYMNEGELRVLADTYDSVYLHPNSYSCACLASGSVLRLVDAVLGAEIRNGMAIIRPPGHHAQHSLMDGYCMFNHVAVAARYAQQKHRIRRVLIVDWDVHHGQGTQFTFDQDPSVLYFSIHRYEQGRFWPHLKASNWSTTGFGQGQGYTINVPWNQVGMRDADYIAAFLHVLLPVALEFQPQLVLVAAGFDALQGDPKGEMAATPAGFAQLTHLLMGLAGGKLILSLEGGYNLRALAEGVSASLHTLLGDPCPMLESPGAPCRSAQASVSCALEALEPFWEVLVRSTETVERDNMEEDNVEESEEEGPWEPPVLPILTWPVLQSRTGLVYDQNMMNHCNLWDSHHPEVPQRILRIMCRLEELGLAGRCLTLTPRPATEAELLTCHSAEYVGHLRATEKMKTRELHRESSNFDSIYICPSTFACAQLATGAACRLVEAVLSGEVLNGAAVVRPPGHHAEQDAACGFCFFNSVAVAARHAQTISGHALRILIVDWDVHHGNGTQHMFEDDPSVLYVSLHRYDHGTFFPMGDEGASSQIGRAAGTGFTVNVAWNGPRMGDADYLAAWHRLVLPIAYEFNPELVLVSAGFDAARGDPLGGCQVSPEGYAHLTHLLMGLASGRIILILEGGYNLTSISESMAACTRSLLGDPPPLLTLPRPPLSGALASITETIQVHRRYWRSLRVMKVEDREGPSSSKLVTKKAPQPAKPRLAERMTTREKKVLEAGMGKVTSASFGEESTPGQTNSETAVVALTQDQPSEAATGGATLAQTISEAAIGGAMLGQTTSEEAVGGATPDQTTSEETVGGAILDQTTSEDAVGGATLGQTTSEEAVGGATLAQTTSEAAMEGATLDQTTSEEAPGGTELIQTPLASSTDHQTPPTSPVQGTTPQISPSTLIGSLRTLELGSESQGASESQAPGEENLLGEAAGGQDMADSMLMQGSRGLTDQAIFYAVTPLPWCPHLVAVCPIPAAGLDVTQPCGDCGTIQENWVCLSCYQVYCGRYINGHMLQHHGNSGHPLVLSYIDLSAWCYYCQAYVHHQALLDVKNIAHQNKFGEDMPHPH

[6] = molecular target: Histone deacetylase 1 (Homo sapiens, UniProt Q13547); assay: Inhibition of human recombinant HDAC1 assessed as fluorescence using fluorogenic substrate ZMAL incubated for 90 min by microplate reader
[7] = molecular target: T1, Bromodomain-containing protein 3; assay: Binding affinity to human BRD3 domain 2 assessed as dissociation constant by isothermal titration calorimetry assay
[8] = molecular target: T4, Bromodomain-containing protein 7 (Homo sapiens, UniProt Q9NPI1); assay: Binding affinity to human BRD7 assessed as dissociation constant by isothermal titration calorimetry assay
T4 sequence (Q9NPI1 whole entry): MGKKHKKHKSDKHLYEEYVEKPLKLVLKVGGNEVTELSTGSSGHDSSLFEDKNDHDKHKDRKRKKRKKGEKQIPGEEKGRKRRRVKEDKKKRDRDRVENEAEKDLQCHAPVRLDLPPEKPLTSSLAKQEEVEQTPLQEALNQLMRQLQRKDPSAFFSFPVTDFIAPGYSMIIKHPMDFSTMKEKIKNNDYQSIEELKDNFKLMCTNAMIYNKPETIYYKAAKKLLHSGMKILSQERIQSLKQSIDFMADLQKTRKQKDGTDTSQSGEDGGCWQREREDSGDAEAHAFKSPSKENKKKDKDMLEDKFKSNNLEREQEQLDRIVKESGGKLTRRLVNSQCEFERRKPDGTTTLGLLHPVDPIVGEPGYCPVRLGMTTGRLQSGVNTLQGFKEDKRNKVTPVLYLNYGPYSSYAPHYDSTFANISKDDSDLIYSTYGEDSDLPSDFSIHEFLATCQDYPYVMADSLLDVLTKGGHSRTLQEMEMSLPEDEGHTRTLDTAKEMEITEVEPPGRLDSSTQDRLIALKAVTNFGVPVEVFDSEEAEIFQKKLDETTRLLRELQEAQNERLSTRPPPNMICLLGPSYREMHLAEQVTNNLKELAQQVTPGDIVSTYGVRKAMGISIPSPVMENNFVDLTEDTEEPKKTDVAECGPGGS

[9] = molecular target: Histone deacetylase 2 (Homo sapiens, UniProt Q92769); assay: Inhibition of human HDAC2 assessed as target activity using fluorogenic substrate ZMAL for 90 min by microplate reader at 355nm
[10] = molecular target: Histone deacetylase 3 (Homo sapiens, UniProt O15379); assay: Inhibition of human HDAC3 assessed as target activity using fluorogenic substrate ZMAL for 90 min by microplate reader at 355nm
[11] = system: HPBALL; assay: Anticancer activity against human HPBALL cells assessed as cell growth inhibition by CellTiter-Glo luminescent assay; assay type: functional, cell-based
[12] = system: TALL-1; assay: Anticancer activity against human TALL-1 cells assessed as cell growth inhibition by CellTiter-Glo luminescent assay; assay type: functional, cell-based
[13] = system: HL-60; assay: Anticancer activity against human HL-60 cells assessed as cell growth inhibition by CellTiter-Glo luminescent assay; assay type: functional, cell-based
[14] = system: K562; assay: Anticancer activity against human K562 cells assessed as cell growth inhibition by CellTiter-Glo luminescent assay; assay type: functional, cell-based
[15] = system: HAL-01; assay: Anticancer activity against human HAL-01 cells assessed as cell growth inhibition by CellTiter-Glo luminescent assay; assay type: functional, cell-based
[16] = system: REH; assay: Anticancer activity against human REH cells assessed as cell growth inhibition by CellTiter-Glo luminescent assay; assay type: functional, cell-based
[17] = molecular target: T5, Histone deacetylase (Homo sapiens) (UniProt Q13547+O15379+Q9UBN7+Q92769+Q9UQL6+Q8WUI4+Q9BY41+Q96DB2+P56524+Q9UKV0+Q969S8); assay: Inhibition of HDAC in human K562 cells assessed as decrease in MYC expression measured after 24 to 72 hrs by Western blot analysis; assay type: cell-based; settings: time 24-72 hrs
[18] = molecular target: T5, Histone deacetylase (Homo sapiens); assay: Inhibition of HDAC in human K562 cells assessed as increase in acetylated alpha-tubulin measured after 48 hrs by Western blot analysis; assay type: cell-based
[19] = molecular target: T5, Histone deacetylase (Homo sapiens); assay: Inhibition of HDAC in human K562 cells assessed as increase in acetylated histone H3 measured after 48 hrs by Western blot analysis; assay type: cell-based
[20] = system: K562; assay: Induction of apoptosis in human K562 cells assessed as apoptosis at 6 uM after 24 to 72 hrs using annexin V/PI followed by flow cytometry; assay type: functional, cell-based; settings: time 24-72 hrs
[21] = system: K562; assay: Induction of apoptosis in human K562 cells assessed as increase cleaved PARP expression measured after 24 to 72 hrs by Western blot analysis; assay type: functional, cell-based; settings: time 24-72 hrs
[22] = system: HL-60; assay: Cytotoxicity against human HL-60 cells assessed as cell viability at 5 uM by CellTiter-Glo luminescent assay; assay type: functional; settings: read-out: Activity
[23] = system: TALL-1; assay: Cytotoxicity against human TALL-1 cells assessed as cell viability at 5 uM by CellTiter-Glo luminescent assay; assay type: functional; settings: read-out: Activity
[24] = system: MOLT-4; assay: Cytotoxicity against human MOLT-4 cells assessed as cell viability at 5 uM by CellTiter-Glo luminescent assay; assay type: functional; settings: read-out: Activity
[25] = system: HPBALL; assay: Anticancer activity against human HPBALL cells assessed as reduction in size of colony at 5 uM measured after 24 hrs by colony formation assay; assay type: functional, cell-based
[26] = system: HPBALL; assay: Anticancer activity against human HPBALL cells assessed as reduction in total number of colony forming units at 5 uM measured after 24 hrs by colony formation assay; assay type: functional, cell-based

T2 sequence (P25440 whole entry, the tested form may be a part): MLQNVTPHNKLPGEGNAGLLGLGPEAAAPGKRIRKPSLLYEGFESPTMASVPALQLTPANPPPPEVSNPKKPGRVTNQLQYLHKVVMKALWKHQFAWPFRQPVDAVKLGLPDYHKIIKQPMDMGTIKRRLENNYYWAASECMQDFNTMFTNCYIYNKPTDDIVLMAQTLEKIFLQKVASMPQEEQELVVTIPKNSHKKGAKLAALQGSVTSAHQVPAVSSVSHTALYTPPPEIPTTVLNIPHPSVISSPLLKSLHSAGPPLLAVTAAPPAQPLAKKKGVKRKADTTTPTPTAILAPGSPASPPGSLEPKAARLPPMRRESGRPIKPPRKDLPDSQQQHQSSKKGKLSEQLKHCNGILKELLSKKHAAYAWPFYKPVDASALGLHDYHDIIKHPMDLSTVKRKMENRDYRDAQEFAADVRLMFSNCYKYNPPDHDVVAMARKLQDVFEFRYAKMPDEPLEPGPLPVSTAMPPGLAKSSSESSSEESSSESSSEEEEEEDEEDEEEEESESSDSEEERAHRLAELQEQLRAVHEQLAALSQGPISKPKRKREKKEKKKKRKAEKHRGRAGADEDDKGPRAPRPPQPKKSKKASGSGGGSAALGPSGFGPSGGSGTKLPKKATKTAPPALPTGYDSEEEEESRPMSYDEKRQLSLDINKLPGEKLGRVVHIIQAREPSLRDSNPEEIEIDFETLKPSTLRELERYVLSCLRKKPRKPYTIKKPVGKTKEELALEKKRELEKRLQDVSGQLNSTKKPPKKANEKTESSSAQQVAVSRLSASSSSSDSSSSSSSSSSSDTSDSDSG
Chain of Histone deacetylase 1 (Q13547 whole entry, the tested form may be a part): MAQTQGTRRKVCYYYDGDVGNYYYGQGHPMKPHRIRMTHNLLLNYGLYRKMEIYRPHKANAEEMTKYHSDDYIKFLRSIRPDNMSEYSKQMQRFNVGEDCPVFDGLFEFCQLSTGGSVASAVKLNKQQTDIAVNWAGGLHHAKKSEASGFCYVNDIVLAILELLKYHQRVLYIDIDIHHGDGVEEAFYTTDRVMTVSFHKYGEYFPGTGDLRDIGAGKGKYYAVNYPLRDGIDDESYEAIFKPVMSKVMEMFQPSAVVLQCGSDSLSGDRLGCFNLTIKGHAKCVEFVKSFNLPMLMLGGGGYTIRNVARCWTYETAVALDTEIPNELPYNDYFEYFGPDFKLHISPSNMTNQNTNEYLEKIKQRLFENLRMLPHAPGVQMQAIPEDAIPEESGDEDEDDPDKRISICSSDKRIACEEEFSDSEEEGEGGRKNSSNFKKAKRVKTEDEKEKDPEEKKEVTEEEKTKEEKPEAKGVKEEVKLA
T1 sequence (Q15059 whole entry, the tested form may be a part): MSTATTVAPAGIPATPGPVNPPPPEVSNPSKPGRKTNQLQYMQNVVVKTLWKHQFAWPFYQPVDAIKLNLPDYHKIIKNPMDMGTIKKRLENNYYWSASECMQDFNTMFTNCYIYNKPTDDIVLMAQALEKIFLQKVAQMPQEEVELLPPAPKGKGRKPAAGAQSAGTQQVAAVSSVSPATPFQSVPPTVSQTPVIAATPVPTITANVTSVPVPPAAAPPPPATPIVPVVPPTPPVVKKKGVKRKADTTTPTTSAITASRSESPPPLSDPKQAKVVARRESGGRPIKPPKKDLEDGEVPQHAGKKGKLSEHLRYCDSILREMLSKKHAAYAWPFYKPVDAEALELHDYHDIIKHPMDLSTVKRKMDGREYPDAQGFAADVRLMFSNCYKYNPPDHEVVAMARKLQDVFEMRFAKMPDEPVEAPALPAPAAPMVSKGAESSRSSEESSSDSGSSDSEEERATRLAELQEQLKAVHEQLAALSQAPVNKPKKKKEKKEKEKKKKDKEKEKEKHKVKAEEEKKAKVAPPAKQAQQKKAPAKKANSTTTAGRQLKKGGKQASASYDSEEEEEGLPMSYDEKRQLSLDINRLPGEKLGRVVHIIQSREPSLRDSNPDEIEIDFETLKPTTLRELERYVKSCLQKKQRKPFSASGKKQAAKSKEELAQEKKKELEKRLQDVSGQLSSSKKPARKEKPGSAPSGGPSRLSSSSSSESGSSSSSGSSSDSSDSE
Chain of Histone deacetylase 2 (Q92769 whole entry): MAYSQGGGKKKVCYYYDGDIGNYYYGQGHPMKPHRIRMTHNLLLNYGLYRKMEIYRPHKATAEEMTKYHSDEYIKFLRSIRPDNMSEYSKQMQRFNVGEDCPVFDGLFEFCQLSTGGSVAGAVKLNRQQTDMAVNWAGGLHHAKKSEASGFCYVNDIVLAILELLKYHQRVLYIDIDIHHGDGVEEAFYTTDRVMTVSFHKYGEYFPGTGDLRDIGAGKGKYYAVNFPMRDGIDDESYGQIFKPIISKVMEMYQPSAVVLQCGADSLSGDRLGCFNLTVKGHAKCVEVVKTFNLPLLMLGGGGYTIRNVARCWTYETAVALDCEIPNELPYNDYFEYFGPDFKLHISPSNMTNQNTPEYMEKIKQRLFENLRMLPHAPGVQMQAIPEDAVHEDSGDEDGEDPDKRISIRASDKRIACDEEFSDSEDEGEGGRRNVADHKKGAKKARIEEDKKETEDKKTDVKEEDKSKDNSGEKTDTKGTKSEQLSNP
Chain of Histone deacetylase 3 (O15379 whole entry): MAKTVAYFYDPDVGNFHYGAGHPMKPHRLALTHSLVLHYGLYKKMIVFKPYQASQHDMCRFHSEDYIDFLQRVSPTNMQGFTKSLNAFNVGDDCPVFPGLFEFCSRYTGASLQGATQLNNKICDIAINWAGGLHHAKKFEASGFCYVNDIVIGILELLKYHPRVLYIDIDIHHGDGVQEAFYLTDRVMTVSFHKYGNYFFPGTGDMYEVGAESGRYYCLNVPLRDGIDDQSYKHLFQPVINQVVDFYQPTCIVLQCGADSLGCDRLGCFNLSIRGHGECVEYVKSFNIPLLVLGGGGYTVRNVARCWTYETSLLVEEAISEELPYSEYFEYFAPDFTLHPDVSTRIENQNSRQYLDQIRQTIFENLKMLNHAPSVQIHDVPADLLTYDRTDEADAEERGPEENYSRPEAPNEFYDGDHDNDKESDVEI

Kd ([4]; read-out: Kd) [µM]	IC50 [5] [µM]	IC50 [6] [µM]	Structure (SMILES)	viability at 5 µM [22] [%]	viability at 5 µM [23] [%]	viability at 5 µM [24] [%]	other results
4.5	0.045	0.125	CCc1c(C(=O)Nc2cccc(/C=C/C(=O)NO)c2)[nH]c(C)c1C(C)=O				Kd [1]: > 10 µM; Kd [2]: > 10 µM; Kd [3]: 7.7 µM; Kd [7]: > 10 µM; Kd [8]: > 10 µM; IC50 [9]: 0.168 µM; IC50 [10]: 0.149 µM; IC50 [11]: > 25 µM; IC50 [12]: 5.16 µM; IC50 [13]: > 25 µM; IC50 [14]: 7.38 µM; IC50 [15]: > 25 µM; IC50 [16]: > 25 µM; Activity [17]: Active; inhibition [18]: Active; Activity [19]: Active
			CCc1c(C(=O)Nc2cc(S(=O)(=O)N(CC)CC)ccc2O)[nH]c(C)c1C(C)=O				Kd [1]: 0.38 µM; Kd [2]: 0.83 µM; Kd [3]: 0.17 µM; Kd [7]: 0.49 µM
			O=C(CCCCCCNC(=O)c1cnc(N(c2ccccc2)c2ccccc2)nc1)NO [RICOLINOSTAT]				IC50 [11]: 6.7 µM; IC50 [12]: 3.88 µM; IC50 [13]: 10.4 µM; IC50 [14]: 6.02 µM; IC50 [15]: > 25 µM; IC50 [16]: > 25 µM; Activity [20]: Active; Activity [21]: Active
2.66	0.08	0.142	CCc1c(C(=O)Nc2cc(/C=C/C(=O)NO)ccc2O)[nH]c(C)c1C(C)=O	88.2	87.6	105	
3.67	0.073	0.097	CCc1c(C(=O)Nc2cc(S(=O)(=O)Nc3cccc(/C=C/C(=O)NO)c3)ccc2OC)[nH]c(C)c1C(C)=O	98.7	85.6	106	
			Cc1sc2c(c1C)C(c1ccc(Cl)cc1)=N[C@@H](CC(=O)Nc1ccc(O)cc1)c1nnc(C)n1-2 [BIRABRESIB]				IC50 [11]: 7.01 µM; IC50 [12]: 1.35 µM; IC50 [13]: 0.82 µM; IC50 [14]: 2.84 µM; IC50 [15]: 2.53 µM; IC50 [16]: 15.3 µM
11.5	0.658	0.9	CCc1c(C(=O)Nc2cccc(CCC(=O)NO)c2)[nH]c(C)c1C(C)=O				
6.92	> 100	28.2	CCc1c(C(=O)Nc2cccc(CCC(=O)Nc3ccccc3N)c2)[nH]c(C)c1C(C)=O				
0.034	> 10	> 10	COC(=O)CCCCCCCOc1ccc(S(=O)(=O)N2CCOCC2)cc1NC(=O)c1c2c(c(C)n1C)C(=O)CCCC2	104	70.3	68.6	
8.26	> 33.3	> 33.3	CCc1c(C(=O)Nc2cccc(CCC(=O)OC)c2)[nH]c(C)c1C(C)=O				
	0.32	0.33	Cc1c2c(c(C(=O)Nc3cc(S(=O)(=O)N4CCOCC4)ccc3OCCCCCCCC(=O)NO)n1C)CCCCC2=O	80.8	82.3	115	Activity [25]: Active; Activity [26]: Active
	0.62	1.28	Cn1cccc1C(=O)Nc1cccc(CCC(=O)NO)c1				Kd [4]: Not Active

Source: ChEMBL document CHEMBL5055650, “4-Acyl Pyrrole Capped HDAC Inhibitors: A New Scaffold for Hybrid Inhibitors of BET Proteins and Histone Deacetylases as Antileukemia Drug Leads” (J Med Chem, 2021)
